Experimental data taken from ChEMBL document CHEMBL1629519, “2-Hydroxypropyl-β-cyclodextrin strongly improves water solubility and anti-proliferative activity of pyrazolo[3,4-d]pyrimidines Src-Abl dual inhibitors” (Eur J Med Chem, 2010).
Values after ≈ are worked out from the molar mass of the structure shown. Active and inactive are the calls of the source. No cut-off for these calls is given here.

Experiments:
[1] = Solubility of the compound in 30 % hydroxypropyl-beta-cyclodextrins solution; assay type: physicochemical; settings: 30% hydroxypropyl-beta-cyclodextrin solution
[2] = Aqueous solubility of the compound in dimethyl sulfoxide; assay type: physicochemical; settings: aqueous solution with dimethyl sulfoxide
[3] = Lipophilicity, log P of the compound; assay type: physicochemical; settings: octanol/water
SAOS-2 = test: Anti proliferative activity against human Saos2 assessed as cell viability at 12.5 to 25 uM after 48 hrs by MTT assay; assay type: functional, cell-based
HL-60 = test: Anti proliferative activity against human HL60 assessed as cell viability at 12.5 to 25 uM after 48 hrs by MTT assay; assay type: functional, cell-based
K562 = test: Antiproliferative activity against human K562 cells after 3 days by ATP lite 1 step assay; assay type: functional, cell-based; settings: K562, 72 h
[4] = Antiproliferative activity against human KU812 cells after 3 days by ATP lite 1 step assay; assay type: functional, cell-based; settings: KU812, 72 h

| solubility [1] | solubility [2] | logP [3] | IC50 (K562) | Compound | Activity (SAOS-2) | Activity (HL-60) | IC50 [4] |
| --- | --- | --- | --- | --- | --- | --- | --- |
| 838 µM (≈ 344 µg/mL) | 0.512 µM (≈ 0.21 µg/mL) | 5.49 |  | CSc1nc(NCc2ccccc2)c2cnn(CC(Cl)c3ccccc3)c2n1 (configuration not stated) |  |  |  |
| 790 µM (≈ 349 µg/mL) | 0.588 µM (≈ 0.26 µg/mL) | 6.44 |  | CSc1nc(NCCc2cccc(F)c2)c2cnn(CC(Cl)c3ccccc3)c2n1 (configuration not stated) |  |  |  |
| 947 µM (≈ 402 µg/mL) | 0.166 µM (≈ 0.0704 µg/mL) |  |  | CSc1nc(NCCc2ccccc2)c2cnn(CC(Cl)c3ccccc3)c2n1 (configuration not stated) |  |  |  |
| 910 µM (≈ 430 µg/mL) | 0.107 µM (≈ 0.0506 µg/mL) | 7.4 |  | CCCSc1nc(NCc2cccc(Cl)c2)c2cnn(CC(Cl)c3ccccc3)c2n1 (configuration not stated) |  |  |  |

The remaining lines, values behind:

| Compound | solubility [1] | solubility [2] | logP [3] | IC50 (K562) | Activity (SAOS-2) | Activity (HL-60) | IC50 [4] |
| --- | --- | --- | --- | --- | --- | --- | --- |
| CC(O)COC[C@H]1O[C@@H]2O[C@H]3[C@H](O)[C@@H](O)[C@@H](O[C@H]4[C@H](O)[C@@H](O)[C@@H](O[C@H]5[C@H](O)[C@@H](O)[C@@H](O[C@H]6[C@H](O)[C@@H](O)[C@@H](O[C@H]7[C@H](O)[C@@H](O)[C@@H](O[C@H]8[C@H](O)[C@@H](O)[C@@H](O[C@H]1[C@H](O)[C@H]2O)O[C@@H]8COCC(C)O)O[C@@H]7COCC(C)O)O[C@@H]6COCC(C)O)O[C@@H]5COCC(C)O)O[C@@H]4COCC(C)O)O[C@@H]3COCC(C)O (some centres not stated) |  |  |  |  | inactive | inactive |  |
| CSc1nc(NCc2cccc(Cl)c2)c2cnn(CC(Cl)c3ccccc3)c2n1 (configuration not stated) | 314 µM (≈ 140 µg/mL) | 0.295 µM (≈ 0.131 µg/mL) | 6.76 | 7.19 µM |  |  | 24.1 µM |
| CSc1nc(NCc2cccc(Br)c2)c2cnn(CC(Cl)c3ccccc3)c2n1 (configuration not stated) | 390 µM (≈ 191 µg/mL) | 0.141 µM (≈ 0.0689 µg/mL) | 6.37 |  |  |  |  |
| CSc1nc(NCc2ccccc2F)c2cnn(CC(Cl)c3ccccc3)c2n1 (configuration not stated) |  |  | 5.88 | 6.11 µM |  |  | 7.87 µM |
| CSc1nc(NCCc2ccc(Cl)cc2)c2cnn(CC(Cl)c3ccccc3)c2n1 (configuration not stated) | 612 µM (≈ 281 µg/mL) | 0.158 µM (≈ 0.0724 µg/mL) | 7.41 |  |  |  |  |
